Our source for the IC50 values is patent publication US8901118B2, “Compounds and methods for kinase modulation, and indications therefor” (Plexxikon Inc., priority 2010, dated 2014).

What all share (assay type): in vitro ADME
In one test the target is CYP2C19 (Homo sapiens, UniProt P33261). Nature of the test: CYP2C19 inhibition (fluorescent substrate CEC). The conditions noted are these: read-out: Cyp IC50 2C19. Put shortly: (§1)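 Test compounds, 10-point 1:1 serial dilutions in NADPH-regenerating cofactor mix, were preincubated 10 min at 37° C before recombinant enzyme and fluorogenic substrate reactions at 37° C (CYP1A2 15 min; CYP2C9 45 min; CYP2C19, 2D6 30 min). Product fluorescence was read at 409 ex with 460 em (1A2, 2C19) or 530 em (2C9, 2D6), and IC50 fitted from signal versus concentration.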

A further test concerns the target CYP2C9 (Homo sapiens, UniProt P11712). Put plainly: CYP2C9 inhibition (fluorescent substrate MFC). Conditions: read-out: Cyp IC50 2C9. Put shortly: as §1
The target in a further test is T1, CYP1A2 (Homo sapiens, UniProt P05177).
T1 sequence (P05177 1-516): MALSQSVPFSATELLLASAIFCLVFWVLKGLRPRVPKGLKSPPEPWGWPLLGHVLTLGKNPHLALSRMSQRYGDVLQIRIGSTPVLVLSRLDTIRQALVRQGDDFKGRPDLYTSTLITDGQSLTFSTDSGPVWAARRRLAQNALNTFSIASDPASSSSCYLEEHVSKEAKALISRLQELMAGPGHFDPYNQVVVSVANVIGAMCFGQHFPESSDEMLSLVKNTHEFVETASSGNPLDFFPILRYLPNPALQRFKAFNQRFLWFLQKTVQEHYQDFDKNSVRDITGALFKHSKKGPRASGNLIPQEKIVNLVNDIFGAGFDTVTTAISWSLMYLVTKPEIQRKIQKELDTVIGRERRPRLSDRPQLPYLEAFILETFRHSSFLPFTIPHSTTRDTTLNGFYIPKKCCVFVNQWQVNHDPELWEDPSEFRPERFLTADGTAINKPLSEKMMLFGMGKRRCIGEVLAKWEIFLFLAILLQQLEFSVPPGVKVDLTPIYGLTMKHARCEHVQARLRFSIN
Nature of the test: CYP1A2 inhibition (fluorescent substrate CEC). The conditions noted are these: read-out: Cyp IC50 1A2. Put shortly: as §1

A further test addresses CYP3A4(BFC) (Homo sapiens, UniProt P08684). Put plainly: CYP3A4(BFC) inhibition. Conditions: CYP3A4, substrate BFC; read-out: Cyp IC50 3A4(BFC). Put shortly: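 Inhibition of human CYP3A4 with the BFC substrate was measured by fluorescence loss of the metabolized product. Compounds at 100 mM in DMSO were diluted 1 μL into 82 μL acetonitrile, then 11 μL into 204 μL cofactor mix with NADPH regeneration solutions, and serially diluted 1:1 to 10 points. Plates were incubated 30 min at 37° C and read at 409 ex/460 em to obtain IC50.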

CYP3A4(BFC), sequence (P08684 whole entry): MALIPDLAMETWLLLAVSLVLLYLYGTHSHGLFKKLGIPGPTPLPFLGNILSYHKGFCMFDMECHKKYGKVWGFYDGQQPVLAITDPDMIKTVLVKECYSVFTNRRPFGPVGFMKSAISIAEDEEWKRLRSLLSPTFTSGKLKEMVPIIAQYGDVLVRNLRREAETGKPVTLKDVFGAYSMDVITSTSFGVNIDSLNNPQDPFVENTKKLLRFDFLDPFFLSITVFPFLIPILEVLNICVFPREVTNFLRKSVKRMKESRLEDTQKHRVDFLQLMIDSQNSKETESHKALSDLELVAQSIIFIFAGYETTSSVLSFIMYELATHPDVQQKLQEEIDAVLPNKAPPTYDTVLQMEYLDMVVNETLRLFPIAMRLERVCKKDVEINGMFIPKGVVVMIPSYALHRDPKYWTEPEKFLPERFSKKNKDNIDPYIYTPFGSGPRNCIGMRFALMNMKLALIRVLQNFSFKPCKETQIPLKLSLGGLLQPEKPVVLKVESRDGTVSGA
CYP2C9, sequence (P11712 whole entry): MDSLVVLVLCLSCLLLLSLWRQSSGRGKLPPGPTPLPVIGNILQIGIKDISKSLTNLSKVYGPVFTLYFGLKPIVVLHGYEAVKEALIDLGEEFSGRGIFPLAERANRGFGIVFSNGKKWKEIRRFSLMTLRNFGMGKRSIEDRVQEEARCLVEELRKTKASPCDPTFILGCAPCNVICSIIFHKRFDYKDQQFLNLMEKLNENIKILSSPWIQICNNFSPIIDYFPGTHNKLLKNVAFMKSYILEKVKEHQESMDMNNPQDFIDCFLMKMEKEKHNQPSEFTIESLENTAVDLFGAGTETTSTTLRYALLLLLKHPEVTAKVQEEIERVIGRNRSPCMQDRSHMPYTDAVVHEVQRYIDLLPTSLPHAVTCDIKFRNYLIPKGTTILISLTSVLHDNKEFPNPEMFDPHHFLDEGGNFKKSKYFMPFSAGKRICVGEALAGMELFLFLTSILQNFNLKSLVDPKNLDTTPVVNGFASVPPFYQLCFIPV
CYP2C19, sequence (P33261 whole entry): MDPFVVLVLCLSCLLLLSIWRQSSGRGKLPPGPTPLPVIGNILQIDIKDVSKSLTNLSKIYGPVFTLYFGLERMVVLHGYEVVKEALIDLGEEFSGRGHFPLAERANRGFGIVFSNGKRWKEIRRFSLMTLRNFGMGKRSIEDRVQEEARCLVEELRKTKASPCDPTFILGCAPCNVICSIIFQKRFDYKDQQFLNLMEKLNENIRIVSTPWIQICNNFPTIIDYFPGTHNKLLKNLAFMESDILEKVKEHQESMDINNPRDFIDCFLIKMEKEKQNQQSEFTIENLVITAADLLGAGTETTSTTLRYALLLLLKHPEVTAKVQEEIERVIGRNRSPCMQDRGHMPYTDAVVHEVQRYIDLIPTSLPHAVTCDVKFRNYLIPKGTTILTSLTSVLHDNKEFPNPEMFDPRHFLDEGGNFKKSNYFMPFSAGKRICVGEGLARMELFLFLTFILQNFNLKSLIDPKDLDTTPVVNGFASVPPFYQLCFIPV

As for `CCOc1ncnc2[nH]cc(Cc3ccc(Nc4cnn(CC)c4)nc3F)c12` [Compound P-4012, [5-(4-Ethoxy-7H-pyrrolo[2,3-d]pyrimidin-5-ylmethyl)-6-fluoro-pyridin-2-yl]-(1-ethyl-1H-pyrazol-4-yl)-amine], the 50% inhibitory concentration (IC50) at CYP2C19, on CYP2C9, on CYP1A2 and at CYP3A4(BFC) was above 10 µM in each case.

Take `COc1ncnc2[nH]cc(Cc3ccc(Nc4ccc(C)nc4)nc3F)c12` [Compound P-4010, [6-Fluoro-5-(4-methoxy-7H-pyrrolo[2,3-d]pyrimidin-5-ylmethyl)-pyridin-2-yl]-(6-methyl-pyridin-3-yl)-amine]: the IC50 on CYP2C19, at CYP2C9, on CYP1A2 and on CYP3A4(BFC) was above 10 µM in each case.

For the molecule `Cc1ccc(Nc2ccc(C(=O)c3c[nH]c4ncc(Cl)cc34)c(F)n2)cn1` [Compound P-3044, (5-Chloro-1H-pyrrolo[2,3-b]pyridin-3-yl)-[2-fluoro-6-(6-methyl-pyridin-3-ylamino)-pyridin-3-yl]-methanone], the IC50 on CYP2C19, on CYP2C9, at CYP1A2 and on CYP3A4(BFC) was above 10 µM in each case.

For `Cc1ccc(Nc2ccc(Cc3c[nH]c4ncnc(C5CC5)c34)c(F)n2)cn1` [Compound P-4030, [5-(4-Cyclopropyl-7H-pyrrolo[2,3-d]pyrimidin-5-ylmethyl)-6-fluoro-pyridin-2-yl]-(6-methyl-pyridin-3-yl)-amine], the concentration for half-maximal inhibition (IC50) was 5 to 10 µM at CYP2C19, above 10 µM at CYP2C9, above 10 µM at CYP1A2 and above 10 µM at CYP3A4(BFC).

As to `CCOc1ccc(Nc2ccc(Cc3c[nH]c4ncnc(C)c34)c(F)n2)cn1` [Compound P-4006, (6-Ethoxy-pyridin-3-yl)-[6-fluoro-5-(4-methyl-7H-pyrrolo[2,3-d]pyrimidin-5-ylmethyl)-pyridin-2-yl]-amine], the concentration for half-maximal inhibition (IC50) at CYP2C19, at CYP2C9, at CYP1A2 and at CYP3A4(BFC) was above 10 µM in each case.

Consider `CCc1ccc(Nc2ccc(Cc3c[nH]c4ncnc(OC)c34)c(F)n2)cn1` [Compound P-4007, (6-Ethyl-pyridin-3-yl)-[6-fluoro-5-(4-methoxy-7H-pyrrolo[2,3-d]pyrimidin-5-ylmethyl)-pyridin-2-yl]-amine], for which the IC50 at CYP2C19, at CYP2C9, on CYP1A2 and at CYP3A4(BFC) was above 10 µM in each case.

`Cc1cnc2[nH]cc(Cc3cnc(Nc4ccc(C(F)(F)F)nc4)nc3)c2c1` [Compound P-3018, [5-(5-Methyl-1H-pyrrolo[2,3-b]pyridin-3-ylmethyl)-pyrimidin-2-yl]-(6-trifluoromethyl-pyridin-3-yl)-amine]: the IC50 at CYP2C19 is above 10 µM; at CYP2C9, above 10 µM; at CYP1A2, above 10 µM; at CYP3A4(BFC), below 5 µM.

For `O=C(c1ccc(Nc2ccc(C3CC3)nc2)nc1F)c1c[nH]c2ncccc12` [Compound P-3052, [6-(6-Cyclopropyl-pyridin-3-ylamino)-2-fluoro-pyridin-3-yl]-(1H-pyrrolo[2,3-b]pyridin-3-yl)-methanone], the IC50 on CYP2C19 was 5 to 10 µM; at CYP2C9, 5 to 10 µM; at CYP1A2, above 10 µM; at CYP3A4(BFC), above 10 µM.

Regarding `CCc1ccc(Nc2ccc(Cc3c[nH]c4ncnc(OCCOC)c34)c(F)n2)cn1` [Compound P-4016, (6-Ethyl-pyridin-3-yl)-{6-fluoro-5-[4-(2-methoxy-ethoxy)-7H-pyrrolo[2,3-d]pyrimidin-5-ylmethyl]-pyridin-2-yl}-amine], the 50% inhibitory concentration (IC50) on CYP2C19, at CYP2C9, at CYP1A2 and on CYP3A4(BFC) was above 10 µM throughout.

For `COc1ccc(Nc2ccc(Cc3c[nH]c4ncc(C)cc34)c(F)n2)cn1` [Compound P-3019, [6-fluoro-5-(5-methyl-1H-pyrrolo[2,3-b]pyridin-3-ylmethyl)-pyridin-2-yl]-(6-methoxy-pyridin-3-yl)-amine], the IC50 at CYP2C19 is below 5 µM; at CYP2C9 it was above 10 µM; at CYP1A2 it was above 10 µM; at CYP3A4(BFC) it was above 10 µM.

`COCCOc1ncnc2[nH]cc(Cc3ccc(Nc4ccc(C)nc4)nc3F)c12` [Compound P-4015, {6-Fluoro-5-[4-(2-methoxy-ethoxy)-7H-pyrrolo[2,3-d]pyrimidin-5-ylmethyl]-pyridin-2-yl}-(6-methyl-pyridin-3-yl)-amine]: the IC50 on CYP2C19, on CYP2C9, at CYP1A2 and on CYP3A4(BFC) was above 10 µM each time.

With `COc1ncnc2[nH]cc(Cc3ccc(Nc4ccc(Cl)nc4)nc3F)c12` [Compound P-4003, (6-Chloro-pyridin-3-yl)-[6-fluoro-5-(4-methoxy-7H-pyrrolo[2,3-d]pyrimidin-5-ylmethyl)-pyridin-2-yl]-amine], the IC50 at CYP2C19, at CYP2C9, at CYP1A2 and at CYP3A4(BFC) was above 10 µM in each case.

For `Cc1cnc2[nH]cc(C(=O)c3ccc(Nc4ccc(C)nc4)nc3F)c2c1` [Compound P-3043, [2-Fluoro-6-(6-methyl-pyridin-3-ylamino)-pyridin-3-yl]-(5-methyl-1H-pyrrolo[2,3-b]pyridin-3-yl)-methanone], the concentration for half-maximal inhibition (IC50) at CYP2C19, on CYP2C9, at CYP1A2 and at CYP3A4(BFC) was above 10 µM in each case.

Consider `COc1ncnc2[nH]cc(Cc3ccc(Nc4ccc(C5CC5)nc4)nc3F)c12` [Compound P-4004, (6-Cyclopropyl-pyridin-3-yl)-[6-fluoro-5-(4-methoxy-7H-pyrrolo[2,3-d]pyrimidin-5-ylmethyl)-pyridin-2-yl]-amine], for which the IC50 at CYP2C19, at CYP2C9, at CYP1A2 and at CYP3A4(BFC) was above 10 µM throughout.

With `CCOc1ccc(Nc2ccc(Cc3c[nH]c4ncnc(OCCOC)c34)c(F)n2)cn1` [Compound P-4008, (6-Ethoxy-pyridin-3-yl)-{6-fluoro-5-[4-(2-methoxy-ethoxy)-7H-pyrrolo[2,3-d]pyrimidin-5-ylmethyl]-pyridin-2-yl}-amine], the IC50 is above 10 µM on CYP2C19, above 10 µM at CYP2C9, above 10 µM at CYP1A2 and 5 to 10 µM at CYP3A4(BFC).

Take `CCOc1ncnc2[nH]cc(C(=O)c3ccc(Nc4ccc(OC)nc4)nc3F)c12` [Compound P-4025, (4-Ethoxy-7H-pyrrolo[2,3-d]pyrimidin-5-yl)-[2-fluoro-6-(6-methoxy-pyridin-3-ylamino)-pyridin-3-yl]-methanone]: the 50% inhibitory concentration (IC50) is 5 to 10 µM on CYP2C19, above 10 µM on CYP2C9, above 10 µM on CYP1A2 and below 5 µM on CYP3A4(BFC).

On to `CCc1ccc(Nc2ccc(Cc3c[nH]c4ncnc(C)c34)c(F)n2)cn1` [Compound P-4009, (6-Ethyl-pyridin-3-yl)-[6-fluoro-5-(4-methyl-7H-pyrrolo[2,3-d]pyrimidin-5-ylmethyl)-pyridin-2-yl]-amine], for which the half-inhibitory concentration (IC50) on CYP2C19 was 5 to 10 µM; at CYP2C9, above 10 µM; at CYP1A2, above 10 µM; on CYP3A4(BFC), above 10 µM.

For `COc1ccc(Nc2ccc(Cc3c[nH]c4ncnc(C5CC5)c34)c(F)n2)cn1` [Compound P-4023, [5-(4-cyclopropyl-7H-pyrrolo[2,3-d]pyrimidin-5-ylmethyl)-6-fluoro-pyridin-2-yl]-(6-methoxy-pyridin-3-yl)-amine], the concentration for half-maximal inhibition (IC50) at CYP2C19 was below 5 µM; on CYP2C9 it was above 10 µM; on CYP1A2, above 10 µM; on CYP3A4(BFC), below 5 µM.

With `CCn1cc(Nc2ccc(Cc3c[nH]c4ncnc(C5CC5)c34)c(F)n2)cn1` [Compound P-4036, [5-(4-Cyclopropyl-7H-pyrrolo[2,3-d]pyrimidin-5-ylmethyl)-6-fluoro-pyridin-2-yl]-(1-ethyl-1H-pyrazol-4-yl)-amine], the concentration for half-maximal inhibition (IC50) on CYP2C19, at CYP2C9, at CYP1A2 and on CYP3A4(BFC) was 5 to 10 µM throughout.

Consider `CCc1ccc(Nc2ccc(Cc3c[nH]c4ncc(C)cc34)c(F)n2)cn1` [Compound P-3048, (6-Ethyl-pyridin-3-yl)-[6-fluoro-5-(5-methyl-1H-pyrrolo[2,3-b]pyridin-3-ylmethyl)-pyridin-2-yl]-amine], for which the concentration for half-maximal inhibition (IC50) is below 5 µM at CYP2C19, above 10 µM at CYP2C9, above 10 µM at CYP1A2 and above 10 µM at CYP3A4(BFC).

Usually IC50 stands for the point on the concentration scale where inhibition reaches its midpoint.
